Reference: patent US10597388B2, “Pyridazinone herbicides” (FMC CORPORATION, priority 2014, dated 2020)

Assays:
Test in all cases: Test D controlled growth environment herbicide test, pre- and postemergence
Format in all cases: in vivo
[1] = system: barley, spring (spring barley, Hordeum vulgare)
Summary of the method: (§1)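 Rating is visual, 0–100 scale (100 = complete control), made against untreated plants 14–21 d after treatment in controlled growth conditions. Postemergence sprays went onto 1- to 4-leaf plants in peat medium; preemergence sprays onto silt loam after sowing; formulation included a surfactant.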

[2] = system: canarygrass (Phalaris minor)
Summary of the method: as §1

[3] = system: lambsquarters (Chenopodium album)
Summary of the method: as §1

[4] = system: blackgrass (Alopecurus myosuroides)
Summary of the method: as §1

[5] = system: kochia (Kochia scoparia)
Summary of the method: as §1

[6] = system: wheat, spring (spring wheat, Triticum aestivum)
Summary of the method: as §1

[7] = system: galium (catchweed bedstraw, Galium aparine)
Summary of the method: as §1

[8] = system: bromegrass, downy (downy bromegrass, Bromus tectorum)
Summary of the method: as §1

[9] = system: chickweed (common chickweed, Stellaria media)
Summary of the method: as §1

[10] = system: deadnettle (henbit deadnettle, Lamium amplexicaule)
Summary of the method: as §1

[11] = system: field poppy (Papaver rhoeas)
Summary of the method: as §1

[12] = system: chamomile (scentless chamomile, Matricaria inodora)
Summary of the method: as §1

[13] = system: oilseed rape (Brassica napus)
Summary of the method: as §1

[14] = system: foxtail, green (green foxtail, Setaria viridis)
Summary of the method: as §1

[15] = Postemergence, 31 g ai/ha, scale 0 to 100 (0 no effect, 100 complete control)
[16] = Postemergence, 125 g ai/ha, visual rating on scale 0 (no effect) to 100 (complete control), 14 to 21 d
[17] = Postemergence, 250 g ai/ha, scale 0 to 100 (0 no effect, 100 complete control)
[18] = Preemergence, 62 g ai/ha, scale 0 to 100 (0 no effect, 100 complete control)
[19] = Preemergence, 125 g ai/ha, scale 0 to 100 (0 no effect, 100 complete control)
[20] = Preemergence, 250 g ai/ha, scale 0 to 100, 0 no effect, 100 complete control
[21] = postemergence, 62 g ai/ha, scale 0 to 100, 0 no effect, 100 complete control

## COC(=O)Oc1c(C)nn(C)c(=O)c1-c1c(C)sc2ccc(C)cc12 [Compound 80]
[1]; [15]
  Barley, Spring plant response rating: 0
[1]; [16]
  Plant response rating, Barley, Spring: 15
[1]; [17]
  Plant response rating, Barley, Spring: 25
[1]; Preemergence, 31 g ai/ha
  Plant response rating (scale of 0 to 100), Barley, Spring: 0
[1]; [18]
  Plant response rating, Barley, Spring: 0
[1]; [19]
  Plant response rating, Barley, Spring: 5
[1]; [20]
  Plant response rating, Barley, Spring: 0
[1]; [21]
  Plant response rating, Barley, Spring: 10
[2]; [15]
  Canarygrass plant response rating: 55
[2]; [16]
  Plant response rating, Canarygrass: 85
[2]; [17]
  Plant response rating, Canarygrass: 90
[2]; Preemergence, 31 g ai/ha
  Plant response rating (scale of 0 to 100), Canarygrass: 85
[2]; [18]
  Plant response rating, Canarygrass: 90
[2]; [19]
  Plant response rating, Canarygrass: 90
[2]; [20]
  Plant response rating, Canarygrass: 100
[2]; [21]
  Plant response rating, Canarygrass: 80
[3]; [15]
  Lambsquarters plant response rating: 95
[3]; [16]
  Plant response rating, Lambsquarters: 100
[3]; [17]
  Plant response rating, Lambsquarters: 100
[3]; Preemergence, 31 g ai/ha
  Plant response rating (scale of 0 to 100), Lambsquarters: 100
[3]; [18]
  Plant response rating, Lambsquarters: 100
[3]; [19]
  Plant response rating, Lambsquarters: 100
[3]; [20]
  Plant response rating, Lambsquarters: 100
[3]; [21]
  Plant response rating, Lambsquarters: 100
[4]; [15]
  Blackgrass plant response rating: 75
[4]; [16]
  Plant response rating, Blackgrass: 90
[4]; [17]
  Plant response rating, Blackgrass: 90
[4]; Preemergence, 31 g ai/ha
  Plant response rating (scale of 0 to 100), Blackgrass: 70
[4]; [18]
  Plant response rating, Blackgrass: 75
[4]; [19]
  Plant response rating, Blackgrass: 80
[4]; [20]
  Plant response rating, Blackgrass: 85
[4]; [21]
  Plant response rating, Blackgrass: 80
[5]; [15]
  Kochia plant response rating: 100
[5]; [16]
  Plant response rating, Kochia: 100
[5]; [17]
  Plant response rating, Kochia: 100
[5]; Preemergence, 31 g ai/ha
  Plant response rating (scale of 0 to 100), Kochia: 35
[5]; [18]
  Plant response rating, Kochia: 75
[5]; [19]
  Plant response rating, Kochia: 100
[5]; [20]
  Plant response rating, Kochia: 100
[5]; [21]
  Plant response rating, Kochia: 100
[6]; [15]
  Wheat, Spring plant response rating: 0
[6]; [16]
  Plant response rating, Wheat, Spring: 15
[6]; [17]
  Plant response rating, Wheat, Spring: 30
[6]; Preemergence, 31 g ai/ha
  Plant response rating (scale of 0 to 100), Wheat, Spring: 0
[6]; [18]
  Plant response rating, Wheat, Spring: 0
[6]; [19]
  Plant response rating, Wheat, Spring: 25
[6]; [20]
  Plant response rating, Wheat, Spring: 35
[6]; [21]
  Plant response rating, Wheat, Spring: 10
[7]; [15]
  Galium plant response rating: 90
[7]; [16]
  Plant response rating, Galium: 95
[7]; [17]
  Plant response rating, Galium: 100
[7]; Preemergence, 31 g ai/ha
  Plant response rating (scale of 0 to 100), Galium: 25
[7]; [18]
  Plant response rating, Galium: 40
[7]; [19]
  Plant response rating, Galium: 80
[7]; [20]
  Plant response rating, Galium: 90
[7]; [21]
  Plant response rating, Galium: 95
[8]; [15]
  Bromegrass, Downy plant response rating: 55
[8]; [16]
  Plant response rating, Bromegrass, Downy: 70
[8]; [17]
  Plant response rating, Bromegrass, Downy: 75
[8]; Preemergence, 31 g ai/ha
  Plant response rating (scale of 0 to 100), Bromegrass, Downy: 30
[8]; [18]
  Plant response rating, Bromegrass, Downy: 35
[8]; [19]
  Plant response rating, Bromegrass, Downy: 75
[8]; [20]
  Plant response rating, Bromegrass, Downy: 85
[8]; [21]
  Plant response rating, Bromegrass, Downy: 65
[9]; [15]
  Chickweed plant response rating: 90
[9]; [16]
  Plant response rating, Chickweed: 100
[9]; [17]
  Plant response rating, Chickweed: 100
[9]; Preemergence, 31 g ai/ha
  Plant response rating (scale of 0 to 100), Chickweed: 100
[9]; [18]
  Plant response rating, Chickweed: 100
[9]; [19]
  Plant response rating, Chickweed: 100
[9]; [20]
  Plant response rating, Chickweed: 100
[9]; [21]
  Plant response rating, Chickweed: 100
[10]; [15]
  Deadnettle plant response rating: 35
[10]; [16]
  Plant response rating, Deadnettle: 35
[10]; [17]
  Plant response rating, Deadnettle: 50
[10]; Preemergence, 31 g ai/ha
  Plant response rating (scale of 0 to 100), Deadnettle: 55
[10]; [18]
  Plant response rating, Deadnettle: 65
[10]; [19]
  Plant response rating, Deadnettle: 70
[10]; [20]
  Plant response rating, Deadnettle: 75
[10]; [21]
  Plant response rating, Deadnettle: 25
[11]; [15]
  Field Poppy plant response rating: 60
[11]; [16]
  Plant response rating, Field Poppy: 100
[11]; [17]
  Plant response rating, Field Poppy: 100
[11]; Preemergence, 31 g ai/ha
  Plant response rating (scale of 0 to 100), Field Poppy: 90
[11]; [18]
  Plant response rating, Field Poppy: 100
[11]; [19]
  Plant response rating, Field Poppy: 100
[11]; [20]
  Plant response rating, Field Poppy: 100
[11]; [21]
  Plant response rating, Field Poppy: 80
[12]; [15]
  Chamomile plant response rating: 80
[12]; [16]
  Plant response rating, Chamomile: 100
[12]; [17]
  Plant response rating, Chamomile: 100
[12]; Preemergence, 31 g ai/ha
  Plant response rating (scale of 0 to 100), Chamomile: 95
[12]; [18]
  Plant response rating, Chamomile: 100
[12]; [19]
  Plant response rating, Chamomile: 100
[12]; [20]
  Plant response rating, Chamomile: 100
[12]; [21]
  Plant response rating, Chamomile: 95
[13]; [15]
  Oilseed Rape plant response rating: 15
[13]; [16]
  Plant response rating, Oilseed Rape: 65
[13]; [17]
  Plant response rating, Oilseed Rape: 75
[13]; Preemergence, 31 g ai/ha
  Plant response rating (scale of 0 to 100), Oilseed Rape: 35
[13]; [18]
  Plant response rating, Oilseed Rape: 35
[13]; [19]
  Plant response rating, Oilseed Rape: 35
[13]; [20]
  Plant response rating, Oilseed Rape: 40
[13]; [21]
  Plant response rating, Oilseed Rape: 55
[14]; [15]
  Foxtail, Green plant response rating: 70
[14]; [16]
  Plant response rating, Foxtail, Green: 90
[14]; [17]
  Plant response rating, Foxtail, Green: 95
[14]; Preemergence, 31 g ai/ha
  Plant response rating (scale of 0 to 100), Foxtail, Green: 20
[14]; [18]
  Plant response rating, Foxtail, Green: 80
[14]; [19]
  Plant response rating, Foxtail, Green: 100
[14]; [20]
  Plant response rating, Foxtail, Green: 100
[14]; [21]
  Plant response rating, Foxtail, Green: 90
